From patent US7390782B2, “Methods and products related to metabolic interactions in disease” (University of Vermont and State Agricultural College, priority 1998, dated 2008)
Entries after “also recorded” stand apart in the source; their conditions may differ.

Experiments:
[1] = system: L1210/DDP; assay: Fas expression by flow cytometry (FITC anti-Fas over isotype); type: cell-based; settings: for Fas expression: L1210 DDP, in the presence of staurosporine or ADRIAMYCIN
Description: (§1) 3. Fas Expression Increases as a Function of Glucose: We investigated the effect of increasing concentrations of glucoseon cell surface Fas expression. L1210 and L1210/DDP cells were cultured in glucose free RPMI media or in media supplemented with insulin and glucose for 16 hours. Intra- and extracellular Fas expression was determined by labeling the cells with FITC-conjugated anti-Fas antibodies (Pharmingen), or FITC-conjugated isotype control, then subtracting the fluorescence intensity of the isotype staining from Fas staining for each treatment group.
(§2) L1210, upper panels, and L1210/DDP cells, lower panels, were cultured in glucose free RPMI media, filled circles, or in media supplemented with insulin and glucose, squares, for 16 hours. Intra- and extracellular Fas expression was determined by labeling the cells with FITC-conjugated anti-Fas antibodies, or FITC-conjugated isotype control, then subtracting the fluorescence intensity of the isotype staining from Fas staining for each treatment group (FIG. 2). Results are presented as geometric mean fluorescence over background.
(§3) 4. […] We treated L1210 or L1210 DDP cells with the staurosporine, which inhibits protein kinase C and increases mitochondrial membrane potential, or an anti-cancer agent to which both cells are sensitive, ADRIAMYCIN™. Fas expression was increased or induced on both L1210 and L1210 DDP, respectively, in the presence of staurosporine or ADRIAMYCIN™ (FIG. 3). The L1210 DDP changed morphologically and began to divide rapidly, changes which appeared to correspond with a reversion back to the phenotype of the L1210 cells.
(§4) FIG. 23 is a graph depicting Sodium Acetate as a mitochondrial modifying agent. L1210 or L1210DDP cells were cultured in the presence of graded concentrations of sodium acetate in the medium. Cells were stained with Jo2.2, a fluorescein conjugated anti-Fas antibody, or an isotype control. Cell surface staining was measured flow cytometrically. The Percentage of mean fluorescence intensity over the isotype control was plotted.

[2] = system: L1210; assay: as above; type: cell-based; settings: for Fas expression: in the presence of staurosporine or ADRIAMYCIN
Description: as §1, §2, §3, §4

[3] = system: resting B-cells from (NZB×NZW)F1 and (NZB×SWR)F1 mice; assay: cAMP in resting B-cells from autoimmune strains; type: cell-based
Description: Following the protocols as described in Newell, M K, et al. (Proc Natl Acad Sci, USA, 1993, 90:10459-10463) for resting B lymphocytes from normal mice, we isolated resting B-cells from spleens of (NZB×NZW)F1 and (NZB×SWR)F1 mice by Percoll gradient separation and treated the cells with antibodies to class II molecules, FIG. 12. Experiments utilized mice younger than 3 months of age. […] Resting (1.079<r<1.085) B-cells from normal; […], animals were treated for 10 min at 37° C. with stimuli indicated. Levels of cAMP were determined as described in FIG. 1. Means (and standard errors) from three experiments are shown for normal animals. The means from two experiments are shown for each of the F1 hybrid animals.

[4] = system: resting B-cells from (NZB×NZW)F1 and (NZB×SWR)F1 mice; assay: Apoptosis (DNA fragments) in resting B-cells from autoimmune strains; type: cell-based
Description: We stimulated both resting and activated B-cells from (NZB×NZW)F1 and (NZB×SWR)F1 mice with antibodies to class II molecules. Young animals, prior to the development of lupus-like autoantibody and renal disease, were used in these studies. […] Agarose gel electrophoresis of DNA fragments from high density resting B-cells (1.079<r<1.085) was carried out as described in FIG. 2. Normalized areas produced by scanning densitometry on the gels shown above for normal; (NZB×SWR)F1; or (NZB×NZW)F1, animals. […] For normal animals, the mean and standard error of four experiments are shown. For the (NZB×NZW)F1 animals, representative data from one of two experiments is shown and for (NZB×SWR)F1 animals, a single experiment is shown. Because experiments were performed on different days it is impossible to compare background levels of apoptosis between strains; however, it should be noted that there is significant variability in background levels of apoptosis, with those for the (NZB×NZW)F1 animals apparently tending to be higher than for the other strains.

[5] = system: splenic lymphocytes from C57BL/6, C57BL6.lpr and C57BL.gld; assay: Viability of splenic lymphocytes cultured with methotrexate; type: cell-based, mice; settings: Fas deficient lymphocytes; 5×10^-8 M methotrexate, 18 or 32 hours
Description: 8. Fas Deficient Lymphocytes are also drug resistant to methotrexate: We isolated splenic lymphocytes from aged-matched wild type C57BL/6 mice and C57BL6.lpr and C57BL.gld. Splenocytes from C57BL/6 lpr or gld animals were isolated, red cells depleted, and single cell suspensions prepared. Cells were cultured in the absence or presence of 5×10^−8 M methotrexate for 18 or 32 hours. Cells were harvested and viability was determined by flow cytometric analysis and confirmed with trypan blue exclusion.

[6] = system: L1210/DDP; assay: Methotrexate-induced death, flow cytometry and DNA fragment analysis; type: cell-based; settings: 10^-8 M methotrexate, 24 hours
Description: (§5) Additionally, L1210 and L1210/DDP cells were treated with 10−8 M methotrexate for 24 hours. […] The forward scatter low populations took up ethidium bromide differentially. The L1210 cells took up a moderate amount. […] This latter phenotype—loss in forward scatter and membrane permeability with no “DNA laddering”—is the hall mark of oncosis.

[7] = system: L1210; assay: as above; type: cell-based; settings: 10^-8 M methotrexate, 24 hours
Description: as §5

[8] = system: B16 melanoma cells; settings: increasing concentrations
Description: FIG. 18 depicts the rates of glucose utilization and oxidation in B16 melanoma cells. Again cells were cultured in the presence of varying concentration of sodium acetate.

[9] = system: L1210DDP; settings: FasL bearing cells over mock-transfectants
Description: (§6) Cells cultured with acetate were loaded with 51 Cr and plated onto FasL bearing or mock transfected fibroblast to determine sensitivity to Fas-induced cell death. Results are reported as percent chromium release from cells in the presence of FasL bearing cells over mock-transfectants.

[10] = system: L1210; settings: FasL bearing cells over mock-transfectants
Description: as §6

[11] = system: B16 melanoma cells; settings: increasing concentrations; remark: listed apart in the source
Description: B16 cells were cultured in the in the presence of different concentrations of sodium acetate and Fas expression was measured.

[12] = system: PC12 cells; assay: Cytofluorometric analysis of Fas, B7.1, B7.2 cell surface expression; type: cell-based, Rat; settings: 50 ng/ml
Description: (§7) Cell Culture: Rat pheochromocytoma cell lines, including PC12, Trk and v-Crk cells were a kind gift from Dr. Raymond Birge. They were maintained in complete RPMI 1640 (GIBCO) supplemented with 7% heat inactivated fetal calf serum and 3% heat inactivated horse serum at 37° C. in a humidified incubator with 5% CO2. The PC12 transfectants were generated as described previously (Glassman et al., 1997, Hempstead et al., 1994). Cells were plated in 6 well culture plates at a concentration ranging from 2-8×10^6 cells/well, according to the cell type's growth kinetics, and 5 ml complete medium. NGF-7S from mouse submaxillary glands (Sigma Chemical Co.) or EGF, kindly provided by Dr. Raymond Birge, was added at a concentration of 50 ng/ml culture medium and the cells were incubated for 24 or 48 hours.
(§8) Cytofluorometric Analysis: Cells were harvested after a 10 minute incubation period on ice in order to diminish their adherence to the plastic culture flask. They were spun at 1210 rpm, for 7 minutes, resuspended in medium and counted after trypan blue staining. Equal numbers of cells were placed in 12×75 mm flow tubes (range: 0.1-1×10^6 cells/tube), washed in PBS and 5% FBS and stained at 4° C. The following stains were used: a) fluorescein isothiocyanate (FITC) hamster IgG isotype standard, b) FITC anti-mouse Fas, c) FITC anti-mouse CD80 (B7.1), d) phycoerythrin (PE) mouse IgG2b K isotype standard and e) PE anti-mouse CD86 (B7.2). All antibodies were obtained from Pharmingen.
(§9) After incubation on ice for 20 minutes, cells were washed, resuspended in PBS and 5% FCS and analyzed by flow cytometry (Becton Dickinson). Histogram plots were derived from dot plots gated on the live cell population according to the forward versus side scatter ratio (Cell Quest Program). The absolute Fas, B7.1 and B7.2 values presented on the graphs were obtained by subtracting the […]. Values were considered subjectively positive (+) if the difference was statistically significant (p<0.001) according to the applied Kilmogorov-Smirnov statistical analysis.

[13] = system: TrkA cells; assay: as above; type: cell-based, Rat; settings: Trk cells, 50 ng/ml
Description: as §7, §8, §9

[14] = system: v-Crk cells; assay: as above; type: cell-based, Rat
Description: as §7, §8, §9

COc1cccc2c1C(=O)c1c(O)c3c(c(O)c1C2=O)C[C@@](O)(C(=O)CO)C[C@@H]3O[C@H]1C[C@H](N)[C@H](O)[C@H](C)O1 [ADRIAMYCIN™]
Fas expression [1]: induced
Fas expression [2]: increased

CC(C)NCC(O)c1ccc(O)c(O)c1 (stereo not shown) [isoproterenol]
intracellular cAMP response [3]: normal
apoptosis ([4]; (NZB×NZW)F1 B-cells): minimal evidence of apoptosis
apoptosis ([4]; B-cells from (NZB×SWR)F1 mice): intermediate level

CN(Cc1cnc2nc(N)nc(N)c2n1)c1ccc(C(=O)N[C@@H](CCC(=O)O)C(=O)O)cc1 [methotrexate]
susceptibility to methotrexate-induced apoptosis [5]: decreased susceptibility
DNA fragments (laddering) [6]: did not
DNA fragments (laddering) [7]: produced a ladder of nucleosome sized fragments indicative of apoptosis

CC(=O)[O-].[Na+] [sodium acetate]
glucose oxidation [8]: decreased
glucose utilization [8]: decreased
susceptibility to Fas-dependent cell death (percent chromium release) [9]: results in susceptibility to Fas-dependent cell death
susceptibility to Fas-dependent cell death (percent chromium release) [10]: results in susceptibility to Fas-dependent cell death
cell surface Fas expression ([1]; L1210DDP, graded concentrations of sodium acetate in the medium): increases cell surface Fas expression
cell surface Fas expression ([2]; graded concentrations of sodium acetate in the medium): increases cell surface Fas expression
levels of cell surface Fas ([11]; non-permeabilized B16 cells): increased
levels of intracellular Fas ([11]; permeabilized B16 cells): declined

CN[C@@H]1C[C@H]2O[C@@](C)([C@@H]1OC)n1c3ccccc3c3c4c(c5c6ccccc6n2c5c31)C(=O)NC4 [staurosporine]
Fas expression and susceptibility to drug-induced apoptosis ([1]; L1210 DDP cells treated with staurosporin): restores Fas expression and susceptibility to drug-induced apoptosis
Fas expression [1]: induced
Fas expression [2]: increased

EGF: EGF, kindly provided by Dr. Raymond Birge
B7.1 cell surface expression ([12]; stimulation 24 hours): significantly lowers
Fas cell surface expression ([12]; stimulation 24 hours): downregulates Fas expression
B7.1 cell surface expression ([12]; stimulation 48 hours): reestablishes the basal values
B7.2 cell surface expression ([12]; stimulation 48 hours): up-regulates B7.2 expression
Fas cell surface expression ([12]; stimulation 48 hours): totally abrogates Fas expression
B7.1 cell surface expression ([13]; stimulation 24 hours): lowered
Fas cell surface expression ([13]; stimulation 24 hours): downregulates Fas expression
B7.1 cell surface expression ([13]; stimulation 48 hours): reestablished
B7.2 cell surface expression ([13]; stimulation 48 hours): most significant
Fas cell surface expression ([13]; stimulation 48 hours): totally abrogates Fas expression
B7.1 cell surface expression ([14]; 50 ng/ml, 24 and 48 hours of culture): significantly increases B7.1 expression
Fas cell surface expression ([14]; 50 ng/ml, stimulation 24 hours): significantly up-regulates Fas expression; also recorded: increases three-fold
B7.2 cell surface expression ([14]; 50 ng/ml, stimulation 48 hours): significant induction
Fas cell surface expression ([14]; 50 ng/ml, stimulation 48 hours): down-regulated and abrogated
B7.2 cell surface expression ([14]; after withdrawal): again undetectable
